Test results reported in patent publication US20090317372A1, “SMALL MOLECULES FOR THE REDUCTION OF HIGH BLOOD GLUCOSE LEVEL” (priority 2008, published 2009).

What was measured:
Format in all cases: in vivo
ob/ob mice = experiment: Blood glucose in ob/ob mice, CCcompound1 combined with human proteins AGP and TF
Experimental: For each experimental group, ob/ob mice were chosen (5 mice in each group) that were 43 days old and weighed on average 40.3±1.9-g on the first day of experiment. Three groups of mice were treated with s.c. injection of 4.5-mg/kg CCcompound1 once every day for 17 days. Mice in one of these CCcompound1-treated groups received no other treatment, and their blood was drawn for glucose analysis on day 14 and 17 exactly 45 min after treatment. The second CCcompound1-treated group also received 0.5-mg/mouse (˜11 mg/kg) dose of greater than 98% pure commercial human transferrin [catalogue number, T 3309 according to 2004/2005 Sigma catalogue]. In this second group the blood was drawn on day 14 just prior to TF administration and on day 17 two hours after TF and 45 min after CCcompound1 administration. An additional group of animals received only TF treatment. The third CCcompound1-treated group also received 1.2-mg/mouse (26.6-mg/kg) dose of >99% pure human AGP [catalogue number G 9885 according to 2004/2005 Sigma catalogue]; in this group the blood was drawn on day 14 just prior to AGP administration and on day 17 two hours and 45 minutes after administration of AGP and CCcompound1, respectively. An additional group of animals received only AGP treatment, and yet another group of animals received no treatment at all. On day 1, prior to any treatment, the blood glucose level of all animals was in the range of 7.2-7.9 mM.

C57/BL/6 mice [1] = experiment: Blood glucose level in normal (non-diabetic) mice without glucose challenge; conditions: food deprived 2 h
Experimental: Female C57/BL/6 mice (25-27-g body weight) were deprived of food for 2 hours and then injected with 4.5-mg/kg of CCcompound1. Blood samples for glucose measurements were taken from the eyes (canthus) just before the administration of CCcompound1 (0 min) as well as 30 min and 120 min after the administration of CCcompound1. Glucose concentrations in whole blood samples were immediately measured with the Fast Glucose C test. The data are the mean±std.dev. of 5 determinations, i.e. one determination with each of the 5 animals. […] In this experiment, the period of food deprivation was short enough that compensatory mechanisms could maintain the blood glucose level near the normal 5-mM value. The condition employed also reflects the human eating habits, because normally there is at least a 2 hours interval between meals and snacks. Thus, with normal subjects under normal conditions, CC compounds are not expected to appreciably change the physiological level of blood glucose level that is about 5-mM on average.

C57/BL/6 mice [2] = experiment: Glucose tolerance test with normal mice, dose and time dependence of CCcompound1
Experimental: Female C57/BL/6 mice weighing 22-23-g and fasted for 14 hours prior to i.p. glucose administration (3-g/kg) were used. None of the animals received any food during the experiment other than glucose. The animals received i.p. injections of 2.0 or 4.5-mg/kg of CCcompound1 either 30 min, 60 min or 120 min prior to glucose administration. Blood samples were taken and glucose concentrations were immediately measured as described earlier. Each group included six animals. The data are the mean±std. dev. of 6 determinations, i.e. one determination with each of the six animals. “-min” indicates the length of period in minutes elapsed between the administration of CCcompound1 (first) and glucose (second).

mice with PC-3 tumor = experiment: Glucose tolerance test in the PC-3 tumor model, chronic and acute CCcompound1
Experimental: The experimental PC-3 human tumors were developed in a homozygous line of C.B.-171 cr scid/scid adult female mice that were kept at specified pathogen free (SPF) hygienic level. Treatments with CCcompound1 (4.5 mg/kg) were started on day 12 after tumor implantation and conducted for 5+5 days with 2 treatment-free days inserted between the 2 series of treatments. A control group (10 mice) received no treatment, while another group (10 mice) received 4.5-mg/kg of CCcompound1 once every day between days 12-24. The results, shown in TABLE 8, indicate that between days 12 and 24 after tumor implantation, the prostate tumor caused about 6.9-g loss in lean body weight (4.1-g loss in total body weight). In contrast, animals treated with CCcompound1 actually gained 6.3-g lean body weight.
Tumors and cachexia are usually associated with insulin resistance. […] Both groups were starved for 14 hours and divided into two sub-groups; one subgroup remained untreated on day 25, another subgroup was administered 4.5-mg/kg of CCcompound1 60 min prior to administration of 3-g/kg of glucose. Blood samples were taken and blood glucose was analyzed as described earlier. […] In contrast, in animals that received chronic (C) treatment with CCcompound1 for 12 days, reduction in blood glucose level was clearly faster. Importantly, acute (A) treatment with CCcompound1 was almost as effective in cancer mice as in normal mice in reducing blood glucose level

## Cc1c(OCC(O)C[N+](C)(C)C)cc2c(=O)c3ccccc3sc2c1C.[Cl-] (stereo not shown) [CCcompound 1, [3-(3,4-Dimethyl-9-oxo-9H-thioxanthen-2-yloxy)-2-hydroxypropyl]trimethyl-ammonium chloride]
ob/ob mice; 14th day, CC1 4.5-mg/kg s.c. daily, 45 min after treatment, blood drawn just prior to AGP or TF administration
  Blood glucose level: 10.9 ± 0.9 mM
ob/ob mice; 17th day, 45 min after CC1 4.5-mg/kg s.c., two hours after TF 0.5-mg/mouse or AGP 1.2-mg/mouse
  Blood glucose level: 11.4 ± 0.4 mM
C57/BL/6 mice [1]; 0 min, just before 4.5-mg/kg
  Blood glucose: 5.1 ± 0.5 mM
C57/BL/6 mice [1]; 30 min after 4.5-mg/kg
  Blood glucose: 4.9 ± 0.4 mM
C57/BL/6 mice [1]; 120 min after 4.5-mg/kg
  Blood glucose: 4.9 ± 0.6 mM
C57/BL/6 mice [2]; 2 mg/kg i.p. −30 min, 0 min
  Blood glucose: 1.30 ± 0.20 mM
C57/BL/6 mice [2]; 2 mg/kg i.p. −30 min, 30 min
  Blood glucose: 5.40 ± 0.45 mM
C57/BL/6 mice [2]; 2 mg/kg i.p. −30 min, 60 min
  Blood glucose: 4.15 ± 0.45 mM
C57/BL/6 mice [2]; 2 mg/kg i.p. −30 min, 120 min
  Blood glucose: 3.50 ± 0.30 mM
C57/BL/6 mice [2]; 2 mg/kg i.p. −30 min, 180 min
  Blood glucose: 2.80 ± 0.30 mM
C57/BL/6 mice [2]; 2 mg/kg i.p. −60 min, 0 min
  Blood glucose: 1.30 ± 0.30 mM
C57/BL/6 mice [2]; 2 mg/kg i.p. −60 min, 30 min
  Blood glucose: 5.70 ± 0.35 mM
C57/BL/6 mice [2]; 2 mg/kg i.p. −60 min, 60 min
  Blood glucose: 4.30 ± 0.30 mM
C57/BL/6 mice [2]; 2 mg/kg i.p. −60 min, 120 min
  Blood glucose: 3.70 ± 0.30 mM
C57/BL/6 mice [2]; 2 mg/kg i.p. −60 min, 180 min
  Blood glucose: 3.25 ± 0.35 mM
C57/BL/6 mice [2]; 4.5 mg/kg i.p. −30 min, 0 min
  Blood glucose: 1.50 ± 0.25 mM
C57/BL/6 mice [2]; 4.5 mg/kg i.p. −30 min, 30 min
  Blood glucose: 5.05 ± 0.20 mM
C57/BL/6 mice [2]; 4.5 mg/kg i.p. −30 min, 60 min
  Blood glucose: 3.55 ± 0.25 mM
C57/BL/6 mice [2]; 4.5 mg/kg i.p. −30 min, 120 min
  Blood glucose: 2.95 ± 0.25 mM
C57/BL/6 mice [2]; 4.5 mg/kg i.p. −30 min, 180 min
  Blood glucose: 1.95 ± 0.30 mM
C57/BL/6 mice [2]; 4.5 mg/kg i.p. −60 min, 0 min
  Blood glucose: 1.40 ± 0.25 mM
C57/BL/6 mice [2]; 4.5 mg/kg i.p. −60 min, 30 min
  Blood glucose: 5.25 ± 0.30 mM
C57/BL/6 mice [2]; 4.5 mg/kg i.p. −60 min, 60 min
  Blood glucose: 3.90 ± 0.20 mM
C57/BL/6 mice [2]; 4.5 mg/kg i.p. −60 min, 120 min
  Blood glucose: 3.20 ± 0.15 mM
C57/BL/6 mice [2]; 4.5 mg/kg i.p. −60 min, 180 min
  Blood glucose: 2.85 ± 0.15 mM
C57/BL/6 mice [2]; 4.5 mg/kg i.p. −120 min, 0 min
  Blood glucose: 1.35 ± 0.15 mM
C57/BL/6 mice [2]; 4.5 mg/kg i.p. −120 min, 30 min
  Blood glucose: 7.80 ± 0.40 mM
C57/BL/6 mice [2]; 4.5 mg/kg i.p. −120 min, 60 min
  Blood glucose: 5.90 ± 0.45 mM
C57/BL/6 mice [2]; 4.5 mg/kg i.p. −120 min, 120 min
  Blood glucose: 4.30 ± 0.40 mM
C57/BL/6 mice [2]; 4.5 mg/kg i.p. −120 min, 180 min
  Blood glucose: 3.00 ± 0.20 mM
C57/BL/6 mice [2]; administered 120 min prior to glucose
  Glucose lowering effect: practically ineffective
Mice with PC-3 tumor; acute (A): 4.5-mg/kg 60 min prior to glucose on day 25, 0 min
  Blood glucose: 2.3 ± 0.2 mM
Mice with PC-3 tumor; acute (A), 30 min
  Blood glucose: 5.5 ± 0.6 mM
Mice with PC-3 tumor; acute (A), 60 min
  Blood glucose: 4.4 ± 0.7 mM
Mice with PC-3 tumor; acute (A), 120 min
  Blood glucose: 3.5 ± 0.4 mM
Mice with PC-3 tumor; chronic (C): 4.5-mg/kg daily days 12-24, 0 min
  Blood glucose: 1.8 ± 0.4 mM
Mice with PC-3 tumor; chronic (C), 30 min
  Blood glucose: 7.1 ± 0.5 mM
Mice with PC-3 tumor; chronic (C), 60 min
  Blood glucose: 6.5 ± 0.4 mM
Mice with PC-3 tumor; chronic (C), 120 min
  Blood glucose: 4.9 ± 0.6 mM
Mice with PC-3 tumor; chronic + acute (C + A), 0 min
  Blood glucose: 2.1 ± 0.5 mM
Mice with PC-3 tumor; chronic + acute (C + A), 30 min
  Blood glucose: 5.1 ± 0.4 mM
Mice with PC-3 tumor; chronic + acute (C + A), 60 min
  Blood glucose: 3.9 ± 0.4 mM
Mice with PC-3 tumor; chronic + acute (C + A), 120 min
  Blood glucose: 3.1 ± 0.3 mM
